Measured values reported in patent publication US7238689B2, “Isoxazoline derivative and herbicide comprising the same as active ingredient” (Ihara Chemical Industry Co., Ltd., priority 2001, dated 2007).

Assays:
Type in all cases: in vivo
Parameters in all cases: scale not given here
[1] = test system: Echinochloa oryzicola Vasing; assay: Herbicidal effect by paddy field soil treatment; conditions: wettable powder, active ingredient 1000 g/ha, examined at the 21st day from the treatment
Method: (§1) A paddy field soil was filled in a plastic pot of 100 cm^2 and subjected to puddling. Then, seeds of Echinochloa oryzicola Vasing and Monochoria vaginalis (Murm. f.) Presl var. plantaginea (Roxb.) Solms-Laub. were sowed and water was filled in a depth of 3 cm. Next day, wettable powders produced in accordance with the Formulation 1 were diluted with water and dropped on the water surface. The application amount of each wettable powder was 1,000 g per 1 hectare in terms of the active ingredient. Then, breeding was made in a greenhouse, and the herbicidal effect of each wettable powder was examined at the 21st day from the treatment in accordance with the standard shown in Table 21.

[2] = test system: Monochoria vaginalis (Murm. f.) Presl var. plantaginea (Roxb.) Solms-Laub.; assay: Herbicidal effect by paddy field soil treatment; conditions: wettable powder, active ingredient 1000 g/ha, examined at the 21st day from the treatment
Method: as §1

[3] = test system: Echinochloa crus-galli (L.) Beauv. var. crusgalli; assay: Herbicidal effect by upland field soil treatment; conditions: active ingredient 1000 g/ha, examined at 21st day from treatment
Source text: (§2) An upland field soil was filled in a plastic pot of 80 cm^2. Seeds of Echinochloa crus-galli (L.) Beauv. var. crusgalli and Setaria viridis (L.) Beauv. were sowed, followed by covering with the same soil. […] Then, breeding was made in a greenhouse, and the herbicidal effect of each wettable powder was examined at the 21st day from the treatment in accordance with the standard shown in Table 21.

[4] = test system: Setaria viridis (L.) Beauv.; assay: Herbicidal effect by upland field soil treatment; conditions: active ingredient 1000 g/ha, examined at 21st day from treatment
Source text: as §2

Row | SMILES | Herbicidal effect index, Echinochloa oryzicola Vasing [1] | Herbicidal effect index, Monochoria vaginalis (Burm. F.) Presl var. plantaginea (Roxb.) Solms-Laub. [2] | herbicidal effect (index per standard of Table 21), Echinochloa curs-galli (L.) Beauv. Var. crus-galli [3] | herbicidal effect (index per standard of Table 21), Setaria viridis (L.) Beauv. [4]
1 | CC1(C)CC(S(=O)(=O)Cc2nn(-c3ccccc3)cc2OC(F)F)=NO1 [6-0003] | 5 | 5 | 5 | 5
2 | CCOCCn1nc(Cl)c(CS(=O)(=O)C2=NOC(C)(C)C2)c1C(F)(F)F [3-0127] | 5 | 5 | 5 | 5
3 | CC1(C)CC(S(=O)(=O)Cc2c(C(F)(F)F)nn(CC(F)F)c2Cl)=NO1 [3-0114] | 5 | 5 | 5 | 5
4 | Cn1nc(C(F)(F)F)c(CS(=O)(=O)C2=NOC(C)(C)C2)c1F [3-0041] | 5 | 5 | 5 | 5
5 | COCCn1nc(C(F)(F)F)c(CS(=O)(=O)C2=NOC(C)(C)C2)c1Cl [3-0124] | 5 | 5 | 5 | 5
6 | Cc1onc(-c2ccccc2)c1CS(=O)(=O)C1=NOC(C)(C)C1 [4-0007] | 5 | 5 | 5 | 5
7 | Cn1nc(C(F)(F)F)c(CS(=O)(=O)C2=NOC(C)(C)C2)c1S(=O)(=O)c1ccccc1 [3-0070] | 5 | 5 | 4 | 4
8 | CC1(C)CC(S(=O)(=O)Cc2nc3ccccc3o2)=NO1 [10-0009] | 5 | 5 | 5 | 5
9 | CC1(C)CC(S(=O)(=O)Cn2nnc3ccccc32)=NO1 [10-0004] | 5 | 5 | 5 | 5
10 | CCOc1c(C)nn(-c2ccccc2)c1CS(=O)(=O)C1=NOC(C)(C)C1 [5-0005] | 5 | 5 | 5 | 4
11 | CCOc1snc(C)c1CS(=O)(=O)C1=NOC(C)(C)C1 [4-0008] | 5 | 5 | 5 | 5
